According to patent publication EP2147919A1, “Heterocyclic substituted amides, method for their manufacture and their use as herbicides” (Bayer CropScience Aktiengesellschaft, priority 2008, dated 2010):

Experiments:
Log P = type: physicochemical
Schadpflanzen = test: Herbicidal action pre-emergence, summary over the weed spectrum; type: in vivo; details: Vorauflaufverfahren, Aufwandmenge von 1.28 kg und weniger Aktivsubstanz pro Hektar
Excerpt: (§1) Samen von mono- bzw. dikotylen Unkraut- bzw. Kulturpflanzen werden in Holzfasertöpfen in sandiger Lehmerde ausgelegt und mit Erde abgedeckt. Die in Form von benetzbaren Pulvern (WP) oder als Emulsionskonzentrate (EC) formulierten erfindungsgemäßen Verbindungen werden dann als wäßrige Suspension bzw. Emulsion mit einer Wasseraufwandmenge von umgerechnet 600 bis 800 l/ha unter Zusatz von 0,2% Netzmittel auf die Oberfläche der Abdeckerde appliziert.
(§2) Nach der Behandlung werden die Töpfe im Gewächshaus aufgestellt und unter guten Wachstumsbedingungen für die Testpflanzen gehalten. Die visuelle Bonitur der Schäden an den Versuchspflanzen erfolgt nach einer Versuchszeit von 3 Wochen im Vergleich zu unbehandelten Kontrollen (herbizide Wirkung in Prozent (%): 100% Wirkung = Pflanzen sind abgestorben, 0 % Wirkung = wie Kontrollpflanzen).

STEME [1] = test: Herbicidal action pre-emergence (greenhouse pot test, visual rating); type: in vivo, Stellaria media; details: Vorauflauf, 1280 g/ha, visual rating after 3 weeks vs untreated controls
Excerpt: as §1, §2

VERPE [2] = test: as above; type: in vivo, Veronica persica; details: Vorauflauf, 1280 g/ha, visual rating after 3 weeks vs untreated controls
Excerpt: as §1, §2

VIOTR [3] = test: as above; type: in vivo, Viola tricolor; details: Vorauflauf, 1280 g/ha, visual rating after 3 weeks vs untreated controls
Excerpt: as §1, §2

ABUTH = test: Herbicidal action post-emergence (greenhouse pot test, visual rating); type: in vivo, Abutilon theophrasti; details: Nachauflauf, 1280 g/ha, visual rating after ca. 3 weeks vs untreated controls
Excerpt: (§3) Samen von mono- bzw. dikotylen Unkraut- bzw. Kulturpflanzen werden in Holzfasertöpfen in sandigem Lehmboden ausgelegt, mit Erde abgedeckt und im Gewächshaus unter guten Wachstumsbedingungen angezogen. 2 bis 3 Wochen nach der Aussaat werden die Versuchspflanzen im Einblattstadium behandelt. Die in Form von benetzbaren Pulvern (WP) oder als Emulsionskonzentrate (EC) formulierten erfindungsgemäßen Verbindungen werden dann als wäßrige Suspension bzw. Emulsion mit einer Wasseraufwandmenge von umgerechnet 600 bis 800 l/ha unter Zusatz von 0,2% Netzmittel auf die grünen Pflanzenteile gesprüht. Nach ca. 3 Wochen Standzeit der Versuchspflanzen im Gewächshaus unter optimalen Wachstumsbedingungen wird die Wirkung der Präparate visuell im Vergleich zu unbehandelten Kontrollen bonitiert (herbizide Wirkung in Prozent (%): 100% Wirkung = Pflanzen sind abgestorben, 0 % Wirkung = wie Kontrollpflanzen).

STEME [4] = test: as above; type: in vivo, Stellaria media; details: Nachauflauf, 1280 g/ha, visual rating after ca. 3 weeks vs untreated controls
Excerpt: as §3

VIOTR [5] = test: as above; type: in vivo, Viola tricolor; details: Nachauflauf, 1280 g/ha, visual rating after ca. 3 weeks vs untreated controls
Excerpt: as §3

AMARE = test: Herbicidal action pre-emergence (greenhouse pot test, visual rating); type: in vivo, Amaranthus retroflexus; details: Vorauflauf, 1280 g/ha, visual rating after 3 weeks vs untreated controls
Excerpt: as §1, §2

MATIN = test: as above; type: in vivo, Matricaria inodora; details: Vorauflauf, 1280 g/ha, visual rating after 3 weeks vs untreated controls
Excerpt: as §1, §2

VERPE [6] = test: Herbicidal action post-emergence (greenhouse pot test, visual rating); type: in vivo, Veronica persica; details: Nachauflauf, 1280 g/ha, visual rating after ca. 3 weeks vs untreated controls
Excerpt: as §3

| SMILES | logP (Log P) | other results |
| --- | --- | --- |
| COc1ccc(C(NC(=O)c2c(OC(C)C)cc(C)nc2Br)c2ccon2)c(F)c1 (stereo not shown) [Beispiel 3, 2-Brom-N-[(2-fluor-4-methoxyphenyl)(isoxazol-3-yl)methyl]-4-isopropoxy-6-methylnicotinamid] |  | herbizide Wirkung gegen Schadpflanzen (Schadpflanzen): sehr gute herbizide Wirkung |
| CCCOc1cc(C)nc(Br)c1C(=O)NC(c1ccc(Cl)cc1)c1ccon1 (stereo not shown) [Beispiel 35] | 2.63 | herbizide Wirkung gegen Schadpflanzen (Schadpflanzen): sehr gute herbizide Wirkung |
| Cc1ncc(C(=O)NC(c2ccc(Cl)cc2)c2ccon2)c(C)c1Br (stereo not shown) [Beispiel 131] | 2.63 |  |
| COc1ccc(C(NC(=O)c2cnc(C)c(Br)c2C)c2ccon2)c(F)c1 (stereo not shown) [Beispiel 132] | 2.28 |  |
| COc1cccc(C(NC(=O)c2c(OC(C)C)cc(C)nc2Br)c2ccon2)c1 (stereo not shown) [Beispiel 158] | 2.16 |  |
| COc1ccc(C(NC(=O)c2c(OC(C)C)cc(C)nc2Cl)c2ccon2)c(F)c1 (stereo not shown) [Beispiel 187] | 2.18 |  |
| O=C(NC(c1ccon1)c1ccc(Cl)cc1Cl)c1ccc(Cl)nc1 (stereo not shown) [Beispiel 201] |  | herbizide Wirkung STEME (STEME [1]): 100%; herbizide Wirkung VERPE (VERPE [2]): 100%; herbizide Wirkung VIOTR (VIOTR [3]): 100% |
| Cc1ccc(C(=O)NC(c2ccc(Cl)cc2)c2ccon2)cn1 (stereo not shown) [Beispiel 209] |  | herbizide Wirkung ABUTH (ABUTH): 80%; herbizide Wirkung STEME (STEME [4]): 100%; herbizide Wirkung VIOTR (VIOTR [5]): 80% |
| Cn1nc(C(F)(F)F)c(C(=O)NC(c2ccc(Cl)cc2)c2ccon2)c1Cl (stereo not shown) [Beispiel 262] |  | herbizide Wirkung AMARE (AMARE): 100%; herbizide Wirkung MATIN (MATIN): 90%; herbizide Wirkung STEME (STEME [1]): 100%; herbizide Wirkung VERPE (VERPE [2]): 100%; herbizide Wirkung VIOTR (VIOTR [3]): 100% |
| COc1ccc(C(NC(=O)c2cn(C)nc2C)c2ccon2)c(F)c1 (stereo not shown) [Beispiel 266] |  | herbizide Wirkung STEME (STEME [4]): 100%; herbizide Wirkung VERPE (VERPE [6]): 90%; herbizide Wirkung VIOTR (VIOTR [5]): 80% |

Second part, led by results:

| logP (Log P) | SMILES | other results |
| --- | --- | --- |
| 1.8 | COc1ccc(C(NC(=O)c2cnn(C)c2Cl)c2ccon2)c(F)c1 (racemic) [Beispiel 260, 5-Chlor-N-[(2-fluor-4-methoxyphenyl)(isoxazol-3-yl)methyl]-1-methyl-1 H-pyrazol-4-carboxamid] |  |
| 3.44 | COc1cccc(C(NC(=O)c2nsc(Cl)c2Cl)c2ccon2)c1 (racemic) [Beispiel 306, 4,5-Dichlor-N-[(3-methoxyphenyl)(isoxazol-3-yl)methyl]isothiazol-3-carboxamid] |  |
| 1.18 | COc1ccncc1C(=O)NC(c1ccc(Cl)cc1)c1ccon1 (stereo not shown) [Beispiel 188] |  |
| 1 | COc1ccc(C(NC(=O)c2cnccc2OC)c2ccon2)c(F)c1 (stereo not shown) [Beispiel 189] |  |
| 1.07 | COc1ccncc1C(=O)NC(c1ccc(F)c(F)c1)c1ccon1 (stereo not shown) [Beispiel 190] |  |
| 2.45 | CCCOc1cc(C)nc(Cl)c1C(=O)NC(c1cnc(Cl)c(Cl)c1)c1ccon1 (stereo not shown) [Beispiel 221] |  |
| 2.37 | Cc1cc(OC(C)C)c(C(=O)NC(c2cnc(Cl)c(Cl)c2)c2ccon2)c(Cl)n1 (stereo not shown) [Beispiel 222] |  |
| 2.6 | CCCOc1cc(C)nc(Br)c1C(=O)NC(c1cnc(Cl)c(Cl)c1)c1ccon1 (stereo not shown) [Beispiel 223] |  |
| 2.51 | Cc1cc(OC(C)C)c(C(=O)NC(c2cnc(Cl)c(Cl)c2)c2ccon2)c(Br)n1 (stereo not shown) [Beispiel 224] |  |
| 2.63 | O=C(NC(c1ccc(Cl)cc1)c1ccon1)c1ncn(Cc2ccccc2)c1[N+](=O)[O-] (stereo not shown) [Beispiel 289] |  |
| 3.64 | COc1c(C(=O)NC(c2ccc(Cl)cc2)c2ccon2)csc1Br (stereo not shown) [Beispiel 290] |  |
| 1.76 | COc1ccc(C(NC(=S)c2cnn(C)c2Cl)c2ccon2)c(F)c1 (stereo not shown) [Beispiel 312, 5-Chlor-N-[(2-fluor-4-methoxyphenyl)(isoxazol-3-yl)methyl]-1-methyl-1 H-pyrazol-4-carbothioamid] |  |
| 4.51 | COc1c(C(=S)NC(c2ccc(Cl)cc2)c2ccon2)csc1Br (stereo not shown) [Beispiel 313, 5-Brom-N-[(4-chlorphenyl)(isoxazol-3-yl)methyl]-4-methoxythiophen-3-carbothioamid] |  |
